How the values were obtained:
[1] = tested on: genotype 1b and 2a HCV replicons; assay: HCV replicon assays, genotype 1b and 2a stated together; format: cell-based, hepatitis C virus; conditions: for EC50: Hepatitis C virus, GETYPE1B, read-out: EC50 in genotype 1b and 2a HCV replicons
HIV-1LAI [2] = conditions: HIV-1 infected MT-2 cells, previous studies; cited from earlier work
[3] = tested on: genotype 2a HCV replicon (JFH-1); assay: HCV replicon assay, JFH-1; format: cell-based, hepatitis C virus; conditions: CC50/EC50, genotype 2a
HIV-1LAI [4] = assay: HIV-1 inhibition assay in MT-2 cells; format: cell-based; conditions: HIV-1 in MT-2 cells
[5] = tested on: genotype 1b HCV replicon (BM4-5); assay: HCV replicon assay, BM4-5; format: cell-based, hepatitis C virus; conditions: CC50/EC50, genotype 1b
Vaccinia = conditions: read-out: EC50 Vaccinia; in vitro; ref Beadle et al. (ref. [13]); cited from earlier work
HCMV = conditions: read-out: EC50 HCMV; in vitro; ref Beadle et al. (ref. [13]); cited from earlier work
Cowpox = conditions: read-out: EC50 Cowpox; cited from earlier work

CCCCCCCCCCCCCCCCCCOCCOP(=O)(O)CO[C@H](COC)Cn1cnc2c(N)ncnc21 [Compound 15, Octadecyloxyethyl (S)-9-[(3-methoxy-2-phosphonomethoxy)propyl]adenine]
EC50 [1]: 1 to 2 µM

C[C@H](Cn1cnc2c(N)ncnc21)OCP(=O)(O)O [tenofovir]
EC50 (HIV-1LAI [2]): 0.65 µM

CCCCCCCCCCCCCCCCCCOCCOP(=O)([O-])CO[C@@H](COC)Cn1cnc2c(=O)[nH]c(N)nc21.[Na+] [Compound 35, Octadecyloxyethyl (R)-9-[(3-methoxy-2-phosphonomethoxy)propyl]guanine]
Selectivity Index JFH-1 (2a) [3]: >12.1
Selectivity Index (HIV-1LAI [4]): >4.4×10^6
Selectivity Index BM4-5 (1b) [5]: >11.9

CCCCCCCCCCCCCCCCCCOCCOP(=O)([O-])CO[C@H](COC)Cn1cnc2c(=O)[nH]c(N)nc21.[Na+] [Compound 34, Octadecyloxyethyl (S)-9-[(3-methoxy-2-phosphonomethoxy)propyl]guanine]
Selectivity Index JFH-1 (2a) [3]: >14.0
Selectivity Index BM4-5 (1b) [5]: >18.2

Nc1ncnc2c1ncn2CCOCP(=O)(O)O [adefovir]
EC50 (HIV-1LAI [2]): 1.1 µM

CCCCCCCCCCCCCCCCOCCCOP(=O)(O)CO[C@H](COC)Cn1cnc2c(OC)nc(N)nc21 [Compound 44, Hexadecyloxypropyl (S)-9-[(3-methoxy-2-phosphonomethoxy)propyl]-6-O-methylguanine]
EC50 [1]: 18 to 26 µM

CCCCCCCCCCCCCCCCCCOCCOP(=O)(O)CO[C@H](CO)Cn1cnc2c(N)ncnc21 [Compound 1, octadecyloxyethyl 9-(S)-[3-hydroxy-2-(phosphonomethoxy)propyl]adenine]
EC50 (Vaccinia): 0.02 ± 0.01 µM
EC50 (HCMV): 0.003 ± 0.001 µM
EC50 (Cowpox): 0.05 ± 0.04 µM

CCCCCCCCCCCCCCCCCCOCCOP(=O)([O-])CO[C@H](COC)Cn1ccc(N)nc1=O.[Na+] [Compound 40, Octadecyloxyethyl (S)-1-[(3-methoxy-2-phosphonomethoxy)propyl]cytosine]
anti-HCV activity (in words) ([1]; genotype 1b and 2a replicons): inactive

CCCCCCCCCCCCCCCCOCCCOP(=O)(O)CO[C@H](COC)Cn1cnc2c(OC)ncnc21 [Compound 43, Hexadecyloxypropyl (S)-9-[(3-methoxy-2-phosphonomethoxy)propyl]-6-methoxypurine]
EC50 [1]: 8.9 to 12.5 µM
